Measured values taken from PMC5895803, “Inhibition of cancer stem cell like cells by a synthetic retinoid” (Nature Communications, 2018).
In brackets after ≈: the same amount, converted by molar mass.

Assays:
[1] = test system: TRCs of A2780, A549, MCF-7, MDA-MB-435s, A375; test: Colony growth of TRCs of five human cancer cell lines (summary statements); format: cell-based
Experimental: (§1) Salmon fibrinogen and thrombin were purchased from Reagent Proteins (CA, USA). 3D fibrin gels were prepared as described previously[5],[6]. In brief, fibrinogen was diluted into 2 mg mL^−1 with T7 buffer (pH 7.4, 50 mM Tris, 150 mM NaCl). Cells were detached from 2D rigid dishes and cell density was adjusted to 10^4 cells per mL. Fibrinogen and cell solution mixture were made by mixing the same volume of fibrinogen solution and cell solution, resulting in 1 mg mL^−1 fibrinogen and 5000 cells per mL in the mixture fibrin gels. A volume of 50 μL cell/fibrinogen mixture was seeded into each well of 96-well plate and mixed well with pre-added 1 μL thrombin (100 U mL^−1). The cell culture plate was then incubated in 37 °C cell culture incubator for 10 min. Finally, 200 μL of DMEM medium containing 10% FBS and antibiotics was added.
Control B16-F1, A2780, A549, MCF-7, MDA-MB-435s, and A375 cells were cultured in 90-Pa fibrin gels to form round colonies and then treated with 0.1, 1, and 10 μM WYC-209, WYC-209A, and WYC-209B or 0.1% DMSO on day 3, which was washed out with pre-warmed PBS on day 4 with fresh medium, and then kept culturing till day 7 or day 9.

[2] = molecular target: T1, CYP 1A2 (Homo sapiens, UniProt P05177); test: Cytochromes enzyme inhibition assay, human liver microsomes; format: in vitro ADME; details: substrate phenacetin (30 µM)
T1 construct: from tissue; host or cells: human liver microsomes

[3] = molecular target: T2, CYP 2C9 (Homo sapiens, UniProt P11712); test: as above; format: in vitro ADME; details: substrate diclofenac (10 µM)
T2 construct: from tissue; host or cells: human liver microsomes

[4] = molecular target: T3, CYP 2C19 (Homo sapiens, UniProt P33261); test: as above; format: in vitro ADME; details: substrate S-mephenytoin (35 µM)
T3 construct: from tissue; host or cells: human liver microsomes

[5] = molecular target: T4, CYP 2D6 (Homo sapiens, UniProt P10635); test: as above; format: in vitro ADME; details: substrate bufuralol (10 µM)
T4 construct: from tissue; host or cells: human liver microsomes

[6] = molecular target: T5, CYP 3A4 (Homo sapiens, UniProt P08684); test: as above; format: in vitro ADME
T5 construct: from tissue; host or cells: human liver microsomes

[7] = Water solubility; details: PBS (pH 7.4), pH 7.4, aqueous buffer, kinetic from dmso stock
[8] = molecular target: hERG channels (Homo sapiens, UniProt Q12809); test: Functional hERG blocking assay, patch clamp in CHO hERG cell line
[9] = test system: human breast cancer MCF-7; test: Colony growth of MCF-7 TRCs in 90-Pa fibrin gels; format: cell-based
Experimental: as §1

[10] = test system: human melanoma MDA-MB-435s; test: Colony growth of MDA-MB-435s TRCs in 90-Pa fibrin gels; format: cell-based
Experimental: as §1

[11] = test system: B16-F1 melanoma cells / TRCs; test: Apoptosis by Annexin-V and PI flow cytometry; format: cell-based, murine; details: 10 μM, 24 h after treatment
Experimental: For Annexin-V and PI staining to quantify cell apoptosis, treated TRCs were isolated from 3D fibrin gel by using 5 mg mL^−1 Dispase II (Sigma), cells were labeled with FITC-conjugated Annexin-V and PI according to the manufacturer’s instruction (Biolegend). Data were acquired on a BD Cantoll (BD biosciences) and analyzed with FlowJo software. For BrdU staining to quantify cell proliferation, cells were labeled with FITC-conjugated anti-BrdU antibody according to the manufacturer’s instruction (FITC BrdU Flow Kit, BD Biosciences) and then data were acquired on an Accuri C6 (BD Biosciences) and analyzed with BD Accuri C6 software.
Supplementary Figure 12. WYC-209 induces TRC apoptosis at 10 µM. (a)
Murine melanoma B16-F1 cells were seeded into 3D soft fibrin gels and then treated […]
The cells were collected after 24 hours and stained with FITC-conjugated Annexin-V and PI for apoptotic detection by flow cytometry. Apoptotic cells (%) = 100% - (Annexin-V-PI-) %. Mean ± s.e.m.; 3 separate experiments; *** P<0.001 (Student’s t-test). (b) Original images of flow cytometry of (a).
(§2) (1 picture or pasted object on this page, not shown here)
Supplementary Figure 38. WYC-209 induces tumor cell apoptosis. […]

[12] = test system: Mitf; test: Mitf expression by qPCR in TRCs; format: cell-based, murine; details: 0.1–10 µM for 24 h
Experimental: Total mRNA was isolated from the cells using the Trizol reagent according to the supplier’s instruction (Invitrogen). Reverse transcription (RT) was performed using the TransScript First-strand cDNA Synthesis SuperMix (TransGen), according to the manufacturer’s protocol. Real-time RT-PCR was performed using GoTaq qPCR Master Mix (Promega). The data were normalized against mouse glyceraldehyde 3-phosphate dehydrogenase. The primer sequences are as follows: mouse GAPDH (F: 5′-[…]-3′, R: 5′-[…]-3′); mouse RARα (F: 5′-[…]-3′, R: 5′-[…]-3′); mouse RARβ (F: 5′-[…]-3′, R: 5′-[…]-3′); mouse RARγ (F: 5′-[…]-3′, R:5′-[…]-3′); mouse Sox2 (F: 5′-[…]-3′, R: 5′-[…]-3′); mouse Mitf (F: 5′-[…]-3′, R: 5′-[…]-3′).
Supplementary Figure 39. WYC-209 decreases Sox2 expression but has no effects on Mitf expression. Murine melanoma cells B16-F1 were seeded into 3D soft fibrin gels and then were treated with 0.1% DMSO, 0.1, 1 or 10 µM WYC-209, WYC-209A, or WYC-209B on day 4. mRNA of cells were extracted after 24 hours. Sox2 (a) and Mitf (b) expressions […]
as §2

T5 sequence (P08684 whole entry): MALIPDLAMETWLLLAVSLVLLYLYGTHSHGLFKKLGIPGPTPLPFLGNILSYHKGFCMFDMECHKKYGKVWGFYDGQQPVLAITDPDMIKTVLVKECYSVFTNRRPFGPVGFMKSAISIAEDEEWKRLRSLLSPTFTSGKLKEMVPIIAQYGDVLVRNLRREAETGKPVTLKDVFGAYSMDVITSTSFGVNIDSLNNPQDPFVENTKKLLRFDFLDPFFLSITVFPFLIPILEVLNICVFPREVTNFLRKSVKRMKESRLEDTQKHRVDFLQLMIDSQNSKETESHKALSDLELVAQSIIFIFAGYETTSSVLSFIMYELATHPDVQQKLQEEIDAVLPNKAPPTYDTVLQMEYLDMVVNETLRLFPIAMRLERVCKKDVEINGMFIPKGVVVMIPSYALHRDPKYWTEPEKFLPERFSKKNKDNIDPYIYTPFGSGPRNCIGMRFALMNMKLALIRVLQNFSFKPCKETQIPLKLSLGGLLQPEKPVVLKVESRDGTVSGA
Chain of hERG channels (Q12809 whole entry): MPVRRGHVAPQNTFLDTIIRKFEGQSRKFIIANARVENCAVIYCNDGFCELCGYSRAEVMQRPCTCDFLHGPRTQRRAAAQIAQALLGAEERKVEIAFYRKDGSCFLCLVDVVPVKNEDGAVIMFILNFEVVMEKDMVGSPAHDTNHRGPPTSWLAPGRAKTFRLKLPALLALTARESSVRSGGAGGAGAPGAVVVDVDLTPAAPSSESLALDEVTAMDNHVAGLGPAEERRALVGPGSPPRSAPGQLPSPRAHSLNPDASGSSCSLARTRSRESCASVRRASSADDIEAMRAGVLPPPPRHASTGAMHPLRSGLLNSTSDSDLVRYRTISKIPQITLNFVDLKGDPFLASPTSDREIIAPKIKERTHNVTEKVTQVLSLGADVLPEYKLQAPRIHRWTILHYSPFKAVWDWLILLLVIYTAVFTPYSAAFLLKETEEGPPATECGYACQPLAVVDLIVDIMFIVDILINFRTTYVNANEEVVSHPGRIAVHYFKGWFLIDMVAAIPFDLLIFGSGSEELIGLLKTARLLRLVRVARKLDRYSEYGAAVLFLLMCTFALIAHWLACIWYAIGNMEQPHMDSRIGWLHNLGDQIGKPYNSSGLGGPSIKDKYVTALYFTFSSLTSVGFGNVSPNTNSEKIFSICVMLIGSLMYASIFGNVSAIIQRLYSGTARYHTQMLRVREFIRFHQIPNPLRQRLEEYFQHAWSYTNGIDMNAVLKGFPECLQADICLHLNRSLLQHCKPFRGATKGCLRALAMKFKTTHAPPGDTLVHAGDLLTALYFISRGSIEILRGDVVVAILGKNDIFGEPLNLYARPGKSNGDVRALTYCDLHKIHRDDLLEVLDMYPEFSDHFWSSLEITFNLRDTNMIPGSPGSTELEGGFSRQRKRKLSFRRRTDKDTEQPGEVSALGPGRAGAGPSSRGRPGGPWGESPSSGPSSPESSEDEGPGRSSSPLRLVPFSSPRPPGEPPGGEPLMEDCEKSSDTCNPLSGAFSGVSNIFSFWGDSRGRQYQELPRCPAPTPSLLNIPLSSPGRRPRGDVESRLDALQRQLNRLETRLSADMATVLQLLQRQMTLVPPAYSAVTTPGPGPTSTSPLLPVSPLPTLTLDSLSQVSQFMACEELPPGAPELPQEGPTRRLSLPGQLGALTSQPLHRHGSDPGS
T4 sequence (P10635 whole entry): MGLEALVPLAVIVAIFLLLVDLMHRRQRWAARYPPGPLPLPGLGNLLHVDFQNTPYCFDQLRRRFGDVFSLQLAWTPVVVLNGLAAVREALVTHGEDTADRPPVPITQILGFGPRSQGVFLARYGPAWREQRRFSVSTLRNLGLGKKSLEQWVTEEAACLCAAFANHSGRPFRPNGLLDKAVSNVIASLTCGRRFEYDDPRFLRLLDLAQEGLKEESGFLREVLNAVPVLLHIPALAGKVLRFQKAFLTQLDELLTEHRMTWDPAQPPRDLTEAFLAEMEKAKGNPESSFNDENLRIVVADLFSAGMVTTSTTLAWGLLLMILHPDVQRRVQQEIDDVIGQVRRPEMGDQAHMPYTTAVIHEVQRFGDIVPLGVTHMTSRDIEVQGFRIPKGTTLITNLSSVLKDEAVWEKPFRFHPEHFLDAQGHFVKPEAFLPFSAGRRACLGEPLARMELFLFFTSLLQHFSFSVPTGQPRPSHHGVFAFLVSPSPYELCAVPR
T3 sequence (P33261 whole entry): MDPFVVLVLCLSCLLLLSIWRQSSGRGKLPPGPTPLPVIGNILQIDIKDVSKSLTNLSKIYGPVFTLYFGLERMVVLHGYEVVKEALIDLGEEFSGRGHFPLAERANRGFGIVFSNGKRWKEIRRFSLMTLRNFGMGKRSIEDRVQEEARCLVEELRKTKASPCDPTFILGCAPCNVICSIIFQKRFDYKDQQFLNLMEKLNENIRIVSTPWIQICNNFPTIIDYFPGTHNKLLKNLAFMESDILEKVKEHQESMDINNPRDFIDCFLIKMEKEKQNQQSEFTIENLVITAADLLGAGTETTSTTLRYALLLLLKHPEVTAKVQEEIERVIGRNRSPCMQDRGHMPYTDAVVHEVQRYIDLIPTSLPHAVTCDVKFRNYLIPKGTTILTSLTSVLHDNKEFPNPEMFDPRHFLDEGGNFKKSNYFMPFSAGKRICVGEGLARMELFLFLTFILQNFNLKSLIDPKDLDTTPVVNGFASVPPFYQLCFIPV
T2 sequence (P11712 whole entry): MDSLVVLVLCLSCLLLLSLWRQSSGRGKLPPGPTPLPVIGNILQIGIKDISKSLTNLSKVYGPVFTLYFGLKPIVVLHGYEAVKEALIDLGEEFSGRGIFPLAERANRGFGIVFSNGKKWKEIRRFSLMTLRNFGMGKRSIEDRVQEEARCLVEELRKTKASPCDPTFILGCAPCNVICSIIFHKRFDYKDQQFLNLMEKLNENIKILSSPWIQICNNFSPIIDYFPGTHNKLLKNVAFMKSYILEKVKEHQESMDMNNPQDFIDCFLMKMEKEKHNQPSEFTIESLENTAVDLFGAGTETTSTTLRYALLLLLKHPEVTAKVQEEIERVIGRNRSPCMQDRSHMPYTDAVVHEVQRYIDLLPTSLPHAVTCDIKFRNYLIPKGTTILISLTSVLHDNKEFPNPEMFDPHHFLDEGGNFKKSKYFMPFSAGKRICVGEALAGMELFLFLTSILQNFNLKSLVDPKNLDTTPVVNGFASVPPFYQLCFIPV
T1 sequence (P05177 whole entry): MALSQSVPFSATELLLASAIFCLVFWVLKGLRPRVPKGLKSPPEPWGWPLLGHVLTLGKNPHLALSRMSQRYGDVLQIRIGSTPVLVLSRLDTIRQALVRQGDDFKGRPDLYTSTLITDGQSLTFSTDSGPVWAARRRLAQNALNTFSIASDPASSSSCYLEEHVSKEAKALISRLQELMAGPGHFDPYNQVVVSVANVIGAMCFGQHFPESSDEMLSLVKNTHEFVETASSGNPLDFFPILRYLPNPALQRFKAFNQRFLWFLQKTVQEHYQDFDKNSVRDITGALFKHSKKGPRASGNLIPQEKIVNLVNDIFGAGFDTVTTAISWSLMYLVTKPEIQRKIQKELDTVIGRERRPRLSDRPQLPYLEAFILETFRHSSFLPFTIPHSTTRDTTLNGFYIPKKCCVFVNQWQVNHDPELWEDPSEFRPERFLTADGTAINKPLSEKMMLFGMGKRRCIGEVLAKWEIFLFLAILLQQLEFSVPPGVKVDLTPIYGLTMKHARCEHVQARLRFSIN

Row | IC50 [2] [µM] | IC50 [3] [µM] | IC50 [4] [µM] | IC50 [5] [µM] | IC50 ([6]; first 3A4 column) [µM] | IC50 ([6]; second 3A4 column) [µM] | solubility at 1 h [7] [µM] | Compound | Colony growth after washout and re-plating ([1]; pretreated at 10 μM) | Colony growth after washout and re-plating ([1]; pretreated at 0.1 or 1 μM) | IC50 [8] [µM] | IC50 ([9]; MCF7, 0 h, MCF-7, treated on day 0) [µM] | inhibition at 10 µM ([9]; MCF7, MCF-7, 10 μM) [%] | IC50 ([10]; 0 h, treated on day 0) [µM] | inhibition at 10 µM ([10]; 10 μM) [%] | IC50 ([1]; Homo sapiens, 0 h, treated on day 0, read-out: IC50 (range over five human TRC types)) [µM] | inhibition at 10 µM ([1]; Homo sapiens, 10 μM, read-out: Growth inhibition of all human TRCs) [%] | TRC growth after drug washout ([1]; treated day 3, washed out day 4, 5 days after washout) | Apoptosis of un-selected melanoma cells or melanoma TRCs [11] | Change in Mitf expression [12]
1 | > 10 | > 10 | > 10 | > 10 | > 10 | > 10 | 89.4 (≈ 32.9 µg/mL) | CCOC(=O)c1cnc(C#Cc2ccc3c(c2)C(C)(C)CC[S@+]3[O-])nc1 [WYC-209A] | completely inhibited | partially inhibited | > 30 |  |  |  |  |  |  |  |  | 
2 | > 10 | > 10 | > 10 | > 10 | > 10 | > 10 | 88.1 (≈ 32.5 µg/mL) | CCOC(=O)c1cnc(C#Cc2ccc3c(c2)C(C)(C)CC[S@@+]3[O-])nc1 [WYC-209B] | completely inhibited | partially inhibited | > 30 |  |  |  |  |  |  |  |  | 
3 |  |  |  |  |  |  |  | CCOC(=O)c1cnc(C#Cc2ccc3c(c2)C(C)(C)CC[S+]3[O-])nc1 (stereo not shown) [WYC-209] | completely inhibited | partially inhibited |  | 0.1 | 100 | 0.52 | 100 | 0.1 to 0.52 | 100 | failed to resume growth | ~ 95% | did not change
